The results in this text go back to article PMC6273912, “Novel 5-Substituted 2-(Aylmethylthio)-4-chloro-N-(5-aryl-1,2,4-triazin-3-yl)benzenesulfonamides: Synthesis, Molecular Structure, Anticancer Activity, Apoptosis-Inducing Activity and Metabolic Stability” (Molecules, 2016).

Data set [1] in a line: Metabolic stability with human liver microsomes and NADPH. It counts as in vitro ADME. The following applies: liver microsomes, pH 7.4, human liver microsomes 0.5 mg/mL, 1 mM NADPH, 10 μM compound, pH 7.4, 37 °C, up to 60 min, read-out: In Vitro Metabolic Half-Life t1/2. The procedure: Stock solutions of studied compounds were prepared at concentration of 10 mM in DMSO. […] Incubation mixture contained 10 μM of a studied derivative, 1 mM of NADPH (Sigma-Aldrich) and 0.5 mg/mL of human liver microsomes (HLM, Sigma-Aldrich) in potassium phosphate buffer (0.1 M, pH 7.4). Incubation was carried out in thermostat at 37 °C and started by addition of studied compound. 50 μL samples were taken after 5, 15, 30, 45 and 60 min. Enzymatic reaction was terminated by the addition of the equal volume of ice-cold acetonitrile containing 10 μM of alprazolam (Sigma-Aldrich) serving as internal standard (IS). Control incubations were performed without NADPH to assess chemical instability. After collection, samples were immediately centrifuged (10 min, 10,000 rpm) and resulted supernatant was directly analyzed or kept in −80 °C until LC-MS analysis. Natural logarithm of a compound over IS peak area ratio was plotted versus incubation time. Metabolic half-time (t1/2) was calculated from the slope of the linear regression, as reported in [48].
LC-MS analysis was performed on an Agilent 1260 system coupled to SingleQuad 6120 mass spectrometer (Agilent Technologies, Santa Clara, CA, USA). Ascentis Express ES-CN (2.1 mm × 100 mm, 2.7 μm, Supelco Analytical, Bellefonte, PA, USA) was used in reversed-phase mode with gradient elution starting with 50% of phase A (10 mM ammonium formate in water) and 50% of phase B (10 mM ammonium formate in acetonitrile-water mixture, 95:5 v/v). […] Total analysis time was 10 min at 25 °C, flow rate was 0.4 mL/min and the injection volume was 20 μL. The mass spectrometer was equipped with electrospray ion source and operated in positive ionization. Mass analyzer was set individually to each compound to detect [M + H]^+ pseudomolecular ions. MSD parameters of the ESI source were as follows: nebulizer pressure 50 psig (N2), drying gas […] (N2), drying gas temperature 300 °C, capillary voltage 3.5 kV, fragmentor voltage 100 V.

The next data set has as its system HCT-116, HeLa and MCF-7. The data set can be described thus: MTT cell viability assay, all tested cell lines together. Format: cell-based. The settings on record: Homo sapiens; average over HCT-116, HeLa and MCF-7; read-out: average IC50 against all tested cell lines. The procedure: All chemicals, if not stated otherwise, were obtained from Sigma-Aldrich (St. Louis, MO, USA). The MCF-7 cell line was purchased from Cell Lines Services (Eppelheim, Germany), the HeLa and HCT-116 cell lines were obtained from the Department of Microbiology, Tumor and Cell Biology, Karolinska Institute (Stockholm, Sweden). Cells were cultured in Dulbecco’s modified Eagle’s medium (DMEM) supplemented with 10% fetal bovine serum, 2 mM glutamine, 100 units/mL penicillin, and 100 μg/mL streptomycin. Cultures were maintained in a humidified atmosphere with 5% CO2 at 37 °C in an incubator (HeraCell, Heraeus, Langenselbold, Germany).
Cell viability was determined using the MTT (3-(4,5-dimethylthiazol-2-yl)-2,5-diphenyl-tetrazoliumbromide) assay. Stock solutions of the studied compounds were prepared in 100% DMSO. […] Cells were seeded in 96-well plates at a density of 5 × 10^3 cells/well and treated for 72 h with the examined compounds in the concentration range 1–100 μM (1, 10, 25, 50 and 100 μM). Following treatment, MTT (0.5 mg/mL) was added to the medium and cells were further incubated for 2 h at 37 °C. Cells were lysed with DMSO and the absorbance of the formazan solution was measured at 550 nm with a plate reader (1420 multilabel counter, Victor, Jügesheim, Germany). […] The experiment was performed in triplicate. Values are expressed as the mean ± SD of at least three independent experiments.
For orientation: Tetrazolium dyes change colour on reduction, which living cells bring about.

In a further data set the test system is MCF-7 (breast cancer). The data set can be described thus: MTT cell viability assay, MCF-7. Format: cell-based, human. The settings on record: Homo sapiens, MCF7, 72 h of incubation, mean ± SD. A digest of the protocol:
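Cells were seeded at 5 × 10^3 cells/well and exposed for 72 h to compounds at 1, 10, 25, 50 and 100 μM, with DMSO stocks. MTT (0.5 mg/mL) was added for 2 h at 37 °C, and formazan absorbance was read at 550 nm. Values are mean ± SD of at least three independent triplicate experiments.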

The subject of data set [2] is HCT-116. In words: Cell morphology (light microscope), HCT-116. The following applies: HCT-116, 25–100 μM, 24 h. It counts as cell-based, human. On the procedure: To evaluate the changes in morphology of the treated cells, they were incubated with increasing concentrations of 37 (HCT-116, HeLa) or 46 (MCF-7) for 24 h and observed using light microscope.
The HCT-116, HeLa and MCF-7cells were seeded on 24-well plates (5 × 10^4/per well) in 300 μL of medium and incubated with 37 (HCT-116, HeLa) or 46 (MCF-7) for 24 h. Cells incubated with increasing concentrations of compounds (25–100 μM) were observed after 24 h using light microscope Axiovert 200 (Zeiss, Oberkochen, Germany).

The test system of data set [3] is HCT-116. The data set can be described thus: Cell cycle analysis (sub-G1, DAPI flow cytometry), HCT-116. It counts as cell-based, human. The following applies: HCT-116, 24 h, dose dependent increase, mean ± SD. On the procedure:
One of the most common mechanisms in anticancer drug treatment is changes in cell cycle, which can be measured by DNA content. Cell cycle distribution in HCT-116, HeLa and MCF-7 cells was examined to determine cycle arrest and/or presence of sub-G1 after treatment with compounds 37 and 46. […] Cell populations data are expressed as the mean ± SD of at least three independent experiments.
Following treatment, cells were fixed in cold 70% ethanol for 30 min. Fixed cells were stained for 15 min in buffer containing 500 μg/mL RNAse A (EURx, Gdansk, Poland) and 2.5 μg/mL of DAPI (Sigma-Aldrich, Munich, Germany). The fluorescence of DAPI was measured at 440 ± 40 nm with a flow cytometer (LSR II, BD Biosciences, Mountain View, CA, USA). Each experiment was performed at least in triplicate. Data were analyzed off-line using the BD FACSDiva (BD Biosciences).
Background: Flow cytometry measures light scatter and fluorescence of single cells or particles in a stream.

A further data set relates to HeLa. The data set can be described thus: Mitochondrial membrane potential (JC-1), HeLa. It counts as cell-based, human. The settings on record: 24 h, low and moderate concentrations. On the procedure:
Loss of the mitochondrial membrane potential (Δψm) is one of the earliest indicators of an apoptosis. It can be detected using fluorescent dye JC-1 (5,5′,6,6′-tetrachloro-1,1′,3,3′-tetraethylbenzimidazolylcarbocyanine iodide) exited with blue laser. JC-1 spontaneously forms dimer complexes (J aggregates) with red fluorescent or remain as a monomers with green fluorescence in cells with high and low Δψm, respectively.
Half an hour before the end of 24 h-treatment 2.5 μg/mL of JC-1 (5,5′,6,6′-tetrachloro-1,1′,3,3′-tetraethylbenzimidazolylcarbocyanine iodide) was added to the cell medium. As a negative control 100 μM CCCP (carbonyl cyanide 3-chlorophenylhydrazone) was used 15 min before JC-1 treatment. Following treatment cells were twice washed with PBS and analyzed with flow cytometer (LSR II, BD Biosciences).
Green and red fluorescence were observed using FL-1 (530 ± 30 nm) and FL-2 (585 ± 42 nm) channels, respectively. Percentage of cell population in red or green fluorescence gate indicated the level of Δψm. Decreasing red fluorescence cell population indicated lower Δψm.

As to `Cc1cc(S(=O)(=O)Nc2nncc(-c3ccc(C(F)(F)F)cc3)n2)c(SCc2cccc3ccccc23)cc1Cl` [Compound 37, 4-Chloro-5-methyl-2-[(naphthalene-1-yl)methylthio]-N-[5-(4-trifluoromethylphenyl)-1,2,4-triazin-3-yl]-benzenesulfonamide], in data set [1], the half-life at 10 μM was 32.8 min. The IC50 – broadly, the point on the concentration scale where inhibition reaches its midpoint – turned out to be 47 µM in the data set with HCT-116, HeLa and MCF-7; 70 ± 3 µM with MCF-7 (breast cancer). Besides, in the data set on HCT-116 [2], the morphological changes result was “shrinkage of the cells, detachment from the surface”. Moreover, the Sub-G1 cell population in the data set on HCT-116 [3] is reported as 48.6% ± 13.5%. In addition, the “effect on mitochondrial membrane potential (Δψm)” value with HeLa is “remarkably decreased Δψm”.
